Test results published in patent publication US12343326B2, “Psychoactive medicines and their use for treating psychiatric and neurological conditions and disorders” (Transcend Therapeutics, Inc., priority 2021, dated 2025).

How the values were obtained:
168 GPCRs [1] = target: 168 GPCRs (Homo sapiens, UniProt Q9P296); assay: β-arrestin based GPCR screen (PathHunter / GPCRmax), agonist mode; type: cell-based; set-up: host or cells: PathHunter cell lines; conditions: C5L2, Agonist
Protocol: (§1) For agonist determination, cells were incubated with sample to induce response. […] Vehicle concentration was 1%.

168 GPCRs [2] = target: 168 GPCRs (Homo sapiens, UniProt P29371); assay: as above; type: cell-based; set-up: host or cells: PathHunter cell lines
Protocol: as §1

168 GPCRs [3] = target: 168 GPCRs (Homo sapiens, UniProt Q9GZQ6); assay: as above; type: cell-based; set-up: host or cells: PathHunter cell lines
Protocol: as §1

168 GPCRs [4] = target: 168 GPCRs (Homo sapiens, UniProt P21917); assay: as above; type: cell-based; set-up: host or cells: PathHunter cell lines
Protocol: as §1

168 GPCRs [5] = target: 168 GPCRs (Homo sapiens, UniProt Q03431); assay: as above; type: cell-based; set-up: host or cells: PathHunter cell lines
Protocol: as §1

168 GPCRs [6] = target: T1, 168 GPCRs (Homo sapiens, UniProt P32248); assay: as above; type: cell-based; set-up: host or cells: PathHunter cell lines; conditions: CCR7, Agonist
T1 sequence (P32248 25-378): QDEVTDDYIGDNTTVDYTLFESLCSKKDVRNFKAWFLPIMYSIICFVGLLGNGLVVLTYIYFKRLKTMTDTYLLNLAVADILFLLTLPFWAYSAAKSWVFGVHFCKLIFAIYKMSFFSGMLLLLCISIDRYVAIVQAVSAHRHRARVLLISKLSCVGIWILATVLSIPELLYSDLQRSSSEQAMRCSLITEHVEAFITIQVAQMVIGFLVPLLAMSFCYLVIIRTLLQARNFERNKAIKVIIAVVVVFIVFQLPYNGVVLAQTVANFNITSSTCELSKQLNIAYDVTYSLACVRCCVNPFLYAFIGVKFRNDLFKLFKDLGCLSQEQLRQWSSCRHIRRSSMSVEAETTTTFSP
Protocol: as §1

[7] = cited from earlier work
healthy adult subjects = assay: Methylone case series, Cohort 1: safety and tolerability of a single dosing session; type: in vivo, human; conditions: Cohort 1, 4 healthy subjects, total oral dose 790 or 870 mg in one session
[8] = Excipient compatibility study (appearance, assay, related substances); type: physicochemical; conditions: closed vial
Protocol: Analyses were conducted at t=0, 2, 4 and 8 weeks for appearance, assay, and related substances for samples stored in closed vials at 25° C./60% RH and 40° C./75% RH.
Excipient Compatibility Sample Mixtures: The excipients and API were dispensed individually by weight into 20 mL clear borosilicate (type I) glass vials to fill the appropriate weights as listed in Table 12. Table 12 lists mixtures of API with varied excipients and a stand-alone control sample of API alone. Each excipient mixture sample preparation was conducted using a clean spatula to mix the vial ingredients for 30-60 seconds. Each vial was properly labeled with the description and storage conditions. One vial was used for testing at the initial (t=0) time point. Three vials, closed, were placed at each storage condition to allow sampling at each time point and one vial, closed, was placed at each storage condition for overage.

168 GPCRs [9] = target: 168 GPCRs (Homo sapiens, UniProt P43116); assay: β-arrestin based GPCR screen (PathHunter / GPCRmax), antagonist mode
168 GPCRs [10] = target: 168 GPCRs (Homo sapiens, UniProt P21453); assay: as above
168 GPCRs [11] = target: 168 GPCRs (Homo sapiens, UniProt P28222); assay: as above; conditions: HTR1B
[12] = tested on: patients with a primary diagnosis of PTSD; assay: Case series with long-term follow-up (Example 5): CGI-I, durability, safety; type: in vivo, human
Source text: The patients were not given structured psychotherapy in conjunction with methylone treatment, which differs from recent studies of MDMA that emphasize the importance of a manualized psychedelic-assisted psychotherapy model.
No protected health information was disclosed, and no consent was obtained from patients for use of their archival data. Case narratives were systematically compiled from data collected as part of routine clinical work. Diagnoses were confirmed by an experienced clinician using semi-structured interviews. Baseline symptom severity was evaluated using the Clinical Global Impressions Scale-Severity (CGI-S). Symptom improvement was evaluated using the Clinical Global Impressions Scale-Improvement (CGI-I) following dosing. […] Because these case narratives were examined retrospectively from routine clinical care records, and not gathered prospectively in a research study, more specific validated rating scales for assessing PTSD symptoms were not available. Additionally, follow-up varied, with the length of follow-up ranging from one week (Case 2) to 15 years (Case 16).
Dosing summary: Methylone was administered orally. Other medications were not changed during methylone treatment. […] In several cases, treatment was continued, and, in some cases, the dose was further escalated in later sessions (see Table 5). Booster doses were included for 19 patients in one or more of the sessions. Starting doses were between 100 and 270 mg, and these as well as booster doses were selected based on clinical judgement.

5HT2C receptor = target: T2, 5HT2C receptor (Homo sapiens, UniProt P28335); assay: GPCRmax screen, antagonist mode; type: cell-based
T2 construct: beta-galactosidase enzyme fragment (PathHunter complementation tag); host or cells: PathHunter cell lines

5HT2A receptor = target: T3, 5HT2A receptor (Homo sapiens, UniProt P28223); assay: GPCRmax screen, antagonist mode; type: cell-based
T3 construct: beta-galactosidase enzyme fragment (PathHunter complementation tag); host or cells: PathHunter cell lines
T3 sequence (P28223 whole entry, the tested form may be a part): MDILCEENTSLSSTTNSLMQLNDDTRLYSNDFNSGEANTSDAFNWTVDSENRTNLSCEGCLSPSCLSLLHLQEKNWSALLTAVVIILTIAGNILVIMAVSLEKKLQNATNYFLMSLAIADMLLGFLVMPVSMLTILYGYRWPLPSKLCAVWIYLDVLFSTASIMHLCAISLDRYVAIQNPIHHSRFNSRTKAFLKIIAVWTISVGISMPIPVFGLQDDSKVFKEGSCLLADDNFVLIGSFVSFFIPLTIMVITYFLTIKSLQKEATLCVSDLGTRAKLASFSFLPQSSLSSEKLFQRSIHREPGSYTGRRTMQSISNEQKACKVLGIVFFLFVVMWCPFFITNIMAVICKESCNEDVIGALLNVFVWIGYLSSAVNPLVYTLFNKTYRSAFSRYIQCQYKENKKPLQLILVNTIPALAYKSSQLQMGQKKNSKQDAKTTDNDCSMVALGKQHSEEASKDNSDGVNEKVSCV

T2 sequence (P28335 33-458): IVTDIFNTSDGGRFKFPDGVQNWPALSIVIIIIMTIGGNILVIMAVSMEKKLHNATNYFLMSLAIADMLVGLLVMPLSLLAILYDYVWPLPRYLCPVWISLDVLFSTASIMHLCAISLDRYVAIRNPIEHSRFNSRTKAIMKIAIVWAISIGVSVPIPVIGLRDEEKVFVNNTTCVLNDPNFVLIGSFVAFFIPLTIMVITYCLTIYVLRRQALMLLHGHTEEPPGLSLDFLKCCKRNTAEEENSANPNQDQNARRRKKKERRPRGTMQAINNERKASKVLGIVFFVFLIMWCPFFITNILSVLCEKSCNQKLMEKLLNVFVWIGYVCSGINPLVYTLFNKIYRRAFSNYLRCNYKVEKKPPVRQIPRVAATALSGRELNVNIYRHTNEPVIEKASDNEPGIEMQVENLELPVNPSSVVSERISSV
Sequence of 168 GPCRs (Homo sapiens, UniProt P21917) (P21917 whole entry): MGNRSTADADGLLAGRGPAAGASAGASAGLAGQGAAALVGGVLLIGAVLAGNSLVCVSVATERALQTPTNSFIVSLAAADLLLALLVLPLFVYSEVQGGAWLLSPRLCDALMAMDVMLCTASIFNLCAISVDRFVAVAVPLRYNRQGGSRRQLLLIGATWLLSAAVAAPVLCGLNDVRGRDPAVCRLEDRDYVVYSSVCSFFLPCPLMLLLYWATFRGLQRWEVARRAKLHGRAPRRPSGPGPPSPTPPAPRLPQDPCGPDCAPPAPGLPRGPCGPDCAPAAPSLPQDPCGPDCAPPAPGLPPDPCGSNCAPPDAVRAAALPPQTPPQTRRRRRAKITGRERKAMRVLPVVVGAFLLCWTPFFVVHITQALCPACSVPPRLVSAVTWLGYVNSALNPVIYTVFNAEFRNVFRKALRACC
Sequence of 168 GPCRs (Homo sapiens, UniProt Q03431) (Q03431 27-593): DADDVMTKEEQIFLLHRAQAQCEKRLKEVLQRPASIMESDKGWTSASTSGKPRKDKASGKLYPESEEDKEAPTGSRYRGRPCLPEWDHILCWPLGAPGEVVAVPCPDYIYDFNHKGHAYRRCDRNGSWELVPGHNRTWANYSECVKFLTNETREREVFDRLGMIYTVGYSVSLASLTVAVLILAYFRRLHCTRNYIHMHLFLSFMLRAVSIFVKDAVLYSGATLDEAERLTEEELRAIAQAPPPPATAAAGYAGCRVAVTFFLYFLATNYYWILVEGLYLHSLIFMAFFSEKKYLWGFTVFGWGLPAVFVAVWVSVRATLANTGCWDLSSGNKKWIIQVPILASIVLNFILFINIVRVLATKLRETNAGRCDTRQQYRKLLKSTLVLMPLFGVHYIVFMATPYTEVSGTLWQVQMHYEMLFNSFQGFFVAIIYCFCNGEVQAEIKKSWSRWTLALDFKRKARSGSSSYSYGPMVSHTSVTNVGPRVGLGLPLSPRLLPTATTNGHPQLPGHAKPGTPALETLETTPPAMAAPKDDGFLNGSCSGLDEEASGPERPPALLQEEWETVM
Sequence of 168 GPCRs (Homo sapiens, UniProt Q9P296) (Q9P296 whole entry): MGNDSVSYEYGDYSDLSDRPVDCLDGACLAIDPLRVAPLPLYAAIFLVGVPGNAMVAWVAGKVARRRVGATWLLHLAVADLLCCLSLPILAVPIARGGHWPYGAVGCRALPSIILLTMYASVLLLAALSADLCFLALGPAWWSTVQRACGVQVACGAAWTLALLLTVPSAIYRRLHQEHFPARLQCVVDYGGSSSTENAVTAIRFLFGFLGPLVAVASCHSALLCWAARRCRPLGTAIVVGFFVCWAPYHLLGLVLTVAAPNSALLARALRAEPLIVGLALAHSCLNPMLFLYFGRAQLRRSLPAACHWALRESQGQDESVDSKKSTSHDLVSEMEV
Sequence of 168 GPCRs (Homo sapiens, UniProt P28222) (P28222 whole entry): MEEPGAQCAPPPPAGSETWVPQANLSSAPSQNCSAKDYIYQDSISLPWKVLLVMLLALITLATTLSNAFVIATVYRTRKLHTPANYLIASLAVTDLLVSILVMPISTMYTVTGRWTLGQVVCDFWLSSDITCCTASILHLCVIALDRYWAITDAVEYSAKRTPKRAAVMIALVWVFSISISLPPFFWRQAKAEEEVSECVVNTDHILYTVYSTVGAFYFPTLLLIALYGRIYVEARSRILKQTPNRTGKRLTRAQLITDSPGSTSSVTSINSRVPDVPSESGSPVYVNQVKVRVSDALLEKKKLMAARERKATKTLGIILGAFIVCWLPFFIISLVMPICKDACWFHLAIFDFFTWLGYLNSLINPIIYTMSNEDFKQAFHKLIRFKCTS
Sequence of 168 GPCRs (Homo sapiens, UniProt Q9GZQ6) (Q9GZQ6 whole entry): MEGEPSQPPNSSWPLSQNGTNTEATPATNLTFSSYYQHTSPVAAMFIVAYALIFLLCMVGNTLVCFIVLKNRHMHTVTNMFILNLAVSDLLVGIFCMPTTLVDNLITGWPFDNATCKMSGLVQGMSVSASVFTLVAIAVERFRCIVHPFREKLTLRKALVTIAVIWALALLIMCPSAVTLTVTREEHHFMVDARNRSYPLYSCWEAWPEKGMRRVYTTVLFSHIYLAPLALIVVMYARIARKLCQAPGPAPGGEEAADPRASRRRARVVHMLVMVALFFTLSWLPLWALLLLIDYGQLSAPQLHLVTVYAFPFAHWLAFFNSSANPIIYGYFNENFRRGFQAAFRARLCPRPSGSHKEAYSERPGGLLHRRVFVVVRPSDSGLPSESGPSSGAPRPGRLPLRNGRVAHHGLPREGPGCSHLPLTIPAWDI
Sequence of 168 GPCRs (Homo sapiens, UniProt P43116) (P43116 whole entry): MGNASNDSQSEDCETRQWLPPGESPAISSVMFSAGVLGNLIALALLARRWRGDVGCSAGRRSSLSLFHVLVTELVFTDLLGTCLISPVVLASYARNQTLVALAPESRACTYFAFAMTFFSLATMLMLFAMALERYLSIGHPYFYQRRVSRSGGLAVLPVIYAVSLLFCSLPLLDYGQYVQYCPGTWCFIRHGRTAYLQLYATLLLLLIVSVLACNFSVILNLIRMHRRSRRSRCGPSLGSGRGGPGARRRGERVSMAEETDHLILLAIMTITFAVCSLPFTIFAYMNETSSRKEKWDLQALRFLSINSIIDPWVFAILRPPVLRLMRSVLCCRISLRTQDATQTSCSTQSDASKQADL
Sequence of 168 GPCRs (Homo sapiens, UniProt P29371) (P29371 whole entry): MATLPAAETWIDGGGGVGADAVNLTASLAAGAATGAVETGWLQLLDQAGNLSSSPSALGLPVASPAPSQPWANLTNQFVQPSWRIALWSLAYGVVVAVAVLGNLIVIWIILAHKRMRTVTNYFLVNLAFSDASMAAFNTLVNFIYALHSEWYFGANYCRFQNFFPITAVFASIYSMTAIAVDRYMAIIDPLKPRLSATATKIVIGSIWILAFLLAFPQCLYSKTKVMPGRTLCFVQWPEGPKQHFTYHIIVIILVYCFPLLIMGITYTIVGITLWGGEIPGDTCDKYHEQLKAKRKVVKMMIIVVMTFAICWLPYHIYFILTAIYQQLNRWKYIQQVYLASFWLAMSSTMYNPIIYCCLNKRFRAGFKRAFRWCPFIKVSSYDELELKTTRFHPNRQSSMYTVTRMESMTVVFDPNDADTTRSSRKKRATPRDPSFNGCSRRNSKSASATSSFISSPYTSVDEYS
Sequence of 168 GPCRs (Homo sapiens, UniProt P21453) (P21453 whole entry): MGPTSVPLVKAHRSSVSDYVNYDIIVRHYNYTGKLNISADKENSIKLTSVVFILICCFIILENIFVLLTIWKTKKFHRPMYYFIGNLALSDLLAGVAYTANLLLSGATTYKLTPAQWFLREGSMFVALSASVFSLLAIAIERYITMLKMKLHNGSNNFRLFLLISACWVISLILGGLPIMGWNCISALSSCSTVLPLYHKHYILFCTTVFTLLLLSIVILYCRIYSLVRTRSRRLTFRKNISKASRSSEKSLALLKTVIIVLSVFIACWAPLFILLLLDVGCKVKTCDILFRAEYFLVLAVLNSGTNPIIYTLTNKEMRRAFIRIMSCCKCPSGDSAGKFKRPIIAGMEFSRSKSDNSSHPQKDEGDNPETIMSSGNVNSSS

Compound: CNC(C)C(=O)c1ccc2c(c1)OCO2 (stereo not drawn) [methylone, 3,4-methylenedioxy-N-methylcathinone]
- activity at 1 µM (168 GPCRs [1]; 1 uM): 8.4%
- activity at 10 µM (168 GPCRs [1]; 10 uM): 12.9%
- activity at 10 µM (168 GPCRs [2]; TACR3, Agonist mode, 10 uM): 1.1%
- activity at 1 µM (168 GPCRs [2]; TACR3, Agonist, 1 uM): 0.8%
- activity at 10 µM (168 GPCRs [3]; NPFFR1, Agonist mode, 10 uM): -5.6%
- activity at 1 µM (168 GPCRs [3]; NPFFR1, Agonist, 1 uM): -4.6%
- activity at 10 µM (168 GPCRs [4]; DRD4, Agonist mode, 10 uM): 9.4%
- activity at 1 µM (168 GPCRs [4]; DRD4, Agonist, 1 uM): -8%
- activity at 10 µM (168 GPCRs [5]; PTHR1, Agonist mode, 10 uM): 0.1%
- activity at 1 µM (168 GPCRs [5]; PTHR1, Agonist, 1 uM): 0%
- activity at 1 µM (168 GPCRs [6]; 1 uM): -3.4%
- activity at 10 µM (168 GPCRs [6]; 10 uM): -3.7%
- time to peak brain and serum concentration ([7]; rats, intraperitoneal administration): 15 to 30 min
- half-life shorter than MDMA ([7]; relative to MDMA): > 50%
- adverse effects or after-effects (healthy adult subjects): no adverse effects or after-effects were observed or reported
- Assay (% Recovery) ([8]; 4 Week 25° C./60% RH): 100.3%
- Assay (% Recovery) ([8]; 8 Week 40° C./75% RH): 100.3%
- activity at 10 µM (168 GPCRs [9]; PTGER2, Antagonist mode, 10 uM): -4.4%
- activity at 1 µM (168 GPCRs [9]; PTGER2, Antagonist, 1 uM): 12.7%
- activity at 10 µM (168 GPCRs [10]; EDG1, Antagonist mode, 10 uM): 10.5%
- activity at 1 µM (168 GPCRs [10]; EDG1, Antagonist, 1 uM): 12.4%
- activity at 10 µM (168 GPCRs [11]; Antagonist mode, 10 uM): -6.2%
- activity at 1 µM (168 GPCRs [11]; Antagonist, 1 uM): -9.5%
- discontinuation due to adverse events ([12]; 21 patients): no patients discontinued treatment due to adverse events
- total adverse events noted ([12]; in three of the 21 patients): four
- patients achieving CGI-I of 1 (very much improved) ([12]; of 21 patients): 9 patients
- patients achieving CGI-I of 2 (much improved) ([12]; of 21 patients): 8 patients
- antagonist activity (% inhibition) (5HT2C receptor; 1 or 10 mM, threshold 50%): no agonist or antagonist activity
- activity at 10 µM (5HT2C receptor; HTR2C, Antagonist mode, 10 uM): 24.2%
- activity at 1 µM (5HT2C receptor; HTR2C, Antagonist, 1 uM): 21.1%
- antagonist activity (% inhibition) (5HT2A receptor; 1 or 10 mM, threshold 50%): no agonist or antagonist activity
- activity at 10 µM (5HT2A receptor; HTR2A, Antagonist mode, 10 uM): -2.7%
- activity at 1 µM (5HT2A receptor; HTR2A, Antagonist, 1 uM): -7.9%
